This is an account of results in patent US20260224482A1, “USE OF OXIDATIVE PRECURSORS IN POULTRY FARMING” (AGA NANOTECH LTD, priority 2023, published 2026).

The structures appear in SMILES notation. “Also recorded” adds a separate entry of the source.

In series [1] the test system is Ross 308 male day-old chickens. Nature of the series: In-water PAA in chickens: performance and safety. It is filed as in vivo. The protocol: (§1) A total of 96 Ross 308 male day-old chickens were used during the trial duration (randomized block design with 2 rooms, 12 pens per room, 4 birds per pen and 4 pens per level of inclusion), whilst PAA treatment was administered during the last week. Six different PAA levels of inclusion were tested through in-water daily administration of SP and TAED precursors. Possible PAA effect on body weight gain (BWG), FCR (feed conversion ratio), feed/water intake and BN (bacterial number) were assessed through fitting linear mixed model (i.e. treatment as fixed effect and hierarchy of room/pen/bird when possible as random effect). Longitudinal data were used when repeated measures were taken. Total bacterial number in DNA extracted from crop, jejunum and caecal content was calculated through qPCR targeting 16S rRNA gene (V3 region). Study design and protocol were approved by SRUC Animal Welfare and Review Body (POU AE 20-2019).

The subject of series [2] is total bacterial number in crop content. As to the kind of experiment: Total bacterial number by qPCR targeting 16S rRNA gene. The class given is in vivo, chickens. To be noted: in-water for one week via SP and TAED precursors; P=0.02. The protocol: as §1
Background: In qPCR the cycle at which signal appears reflects the starting amount.

Consider `CC(=O)OO` [PAA, peracetic acid], for which, in series [1] (PAA administered at 40 ppm, P=0.05), the “effect on BWG from D7 to D14” value is listed as “most evident effect”. Further, the adverse effects entry in series [1] (PAA in-water administration) is recorded as “no adverse effects”. Besides, the bird mortality in series [1] (in-water PAA up to 50 ppm) was 0 ^0/0. Moreover, the BWG during treatment entry in series [1] (in-water for one week via SP and TAED precursors, P=0.05) is “increased”. In addition, in series [2], the “BN in the crop” value is “reducing; also recorded: appears to be reduced by higher dosage”.
